{
  "source": "paper PMC7956564",
  "about": "“Porphyromonas gingivalis HmuY and Bacteroides vulgatus Bvu—A Novel Competitive Heme Acquisition Strategy” (International Journal of Molecular Sciences, 2021)",
  "molecular_target": "T1, Bvu (Phocaeicola vulgatus, UniProt A6L2D9)",
  "T1 construct": "gene BVU_2192",
  "T1 sequence (A6L2D9 entry or part of it)": "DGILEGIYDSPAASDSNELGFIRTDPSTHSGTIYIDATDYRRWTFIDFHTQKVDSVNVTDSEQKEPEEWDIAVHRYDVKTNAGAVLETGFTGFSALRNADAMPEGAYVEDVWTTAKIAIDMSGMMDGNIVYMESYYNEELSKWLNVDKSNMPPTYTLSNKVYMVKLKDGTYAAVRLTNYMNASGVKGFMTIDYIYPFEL",
  "experiment": "biochemical",
  "note": "pKd: −log10 of the molar value.",
  "data": [
    {"smiles": "C=CC1=C(C)C2=Cc3c(C=C)c(C)c4[n]3[Fe][n]3c(c(C)c(CCC(=O)O)c3=CC3=NC(=C4)C(C)=C3CCC(=O)O)=CC1=N2", "note": "[Fe(II)heme]", "values": [
      {"measurement": "pKd", "value": 8.80}
    ]}
  ]
}
